According to patent US7371813B2, “Method for use of IGF-binding protein for selective sensitization of target cells in vivo” (Bioexpertise LLC, priority 2000, dated 2008):
Marks after values point to notes of the source that are not given here.

Experiments:
tumor growth = assay: Systemic IGFBP-3 alone in animal models of cancer, tumor growth; assay type: in vivo; settings: 4 mg/kg for 21 days, more than one animal model of cancer
Protocol: This was surprising because it was believed that IGFBP-3 alone could cause the death of some tumor cells. The dose chosen is likely to be close to the maximum practicable dose that would be systemically delivered in a human clinical setting. The maximum practicable dose is determined by the cost, pharmacokinetics, toxicology, solubility of the formulation, route of administration, and other practical considerations.

MDA-MB-231 tumors = assay: MDA-MB-231 mammary tumors implanted SC in nude mice, tumor growth; assay type: in vivo; settings: for Median tumor volume, day 15: Day 15 post-implant (treatment start); for Median tumor volume, day 15 / Days Delay in tumor growth: MDA-MB-231, nude mice; for Median tumor volume, day 19: Day 19 post-implant; for Median tumor volume, day 22: Day 22 post-implant; for Median tumor volume, day 26: Day 26 post-implant; for Median tumor volume, day 29: Day 29 post-implant; for Median tumor volume, day 33: Day 33 post-implant; for Tumor growth, difference from control: statistical comparison with the control group; for Days Delay in tumor growth: endpoint of 3× doubling of tumor weight
Protocol: MDA-MB-231 tumors were implanted in nude mice. Ten animals (NCr-nu) were allocated to each group. The tumors were implanted SC as trocar fragments and allowed to increase in size to approximately 170 mg before treatment began on Day 15 post-implant. The treatment regimen for [N109D]-IGFBP-3 was 4.0 mg/kg/dose, daily for 21 days, SC beginning on Day 15. The treatment regimen for Taxol was 5.0 mg/kg/day, daily for five days, IV. The treatment regimen for Cisplatin was 4.0 mg/kg/dose, administered every fourth day for three treatments, IP. Treatment regimens for TAXOL® and Cisplatin began on Day 18. Tumor measurements were performed daily.

RXR-alpha = RXR-alpha levels in 16C tumor tissue (gene array); assay type: in vivo, mouse; settings: 16C tumors from treated animals
Protocol: (§1) In order to gain further insights into the mechanism of action of exogenously added IGFBP-3 in these mouse models, tumor tissues from the groups treated with vehicle, doxorubicin, or doxorubicin plus IGFBP-3, were further analyzed using gene array technology. RNA was extracted from tumor tissue. cDNA was prepared, labelled and used to probe Atlas 1.2k-I mouse gene arrays (Clontech Laboratories Inc., Palo Alto, Calif.). These arrays contain 1,176 mouse gene sequences.

[1] = test system: 1,176 mouse gene sequences; assay: Gene array analysis (Atlas 1.2k-I mouse gene arrays) of 16C tumor tissue; assay type: in vivo
Protocol: as §1

[2] = test system: 16C mammary adenocarcinoma; assay: 16C mammary adenocarcinoma SC tumor implants in C3H mice, tumor growth; assay type: in vivo; settings: for Days Delay in tumor growth: endpoint of 1500 mg tumor weight, 16C tumors, C3H mice
Protocol: Female C3H mice (8-11 animals per group) received early SC implants of 16C mammary adenocarcinoma tumor fragments (near 100% “take”) and were treated with vehicle, [N109D]-IGFBP-3 (4 mg/kg/day SC ×21), 5-FU (10 mg/kg/day IP ×5), adriamycin (2 mg/kg/dose IV on day 1 and day 8 post-implant), or the indicated combinations. Tumors were measured twice weekly. Animals were sacrificed at Day 21. The doses of doxorubicin and 5-fluorouracil used in this experiment were chosen to be marginally effective, based on previous experience with these chemical agents in this model. […] The results are shown graphically in FIG. 2.

| Molecule | Median tumor volume, day 15 (MDA-MB-231 tumors) | Median tumor volume, day 19 (MDA-MB-231 tumors) | Median tumor volume, day 22 (MDA-MB-231 tumors) | Median tumor volume, day 26 (MDA-MB-231 tumors) | Median tumor volume, day 29 (MDA-MB-231 tumors) | Median tumor volume, day 33 (MDA-MB-231 tumors) | Days Delay in tumor growth [2] | Tumor growth, difference from control (MDA-MB-231 tumors) | Days Delay in tumor growth (MDA-MB-231 tumors) | also measured |
| --- | --- | --- | --- | --- | --- | --- | --- | --- | --- | --- |
| IGFBP-3: insulin-like growth factor binding protein 3; in Table 2 the group received [N109D]-IGFBP-3 | 161 ± 35 milligrams | 367.5 ± 244 milligrams | 565 ± 510 milligrams | 818.5 ± 750 milligrams | 1089 ± 851 milligrams | 1936 ± 1825 milligrams |  |  |  | Slowing of tumor growth by IGFBP-3 alone (tumor growth): completely ineffective |
| COc1cccc2c1C(=O)c1c(O)c3c(c(O)c1C2=O)C[C@@](O)(C(=O)CO)C[C@@H]3O[C@H]1C[C@H](N)[C@H](O)[C@H](C)O1 [ADRIAMYCIN ®, doxorubicin] |  |  |  |  |  |  | +2.5* days |  |  | Inhibition of RXR-alpha levels in tumors (RXR-alpha): not; Number of down-regulated genes ([1]; among the differentially expressed genes): 16 genes; Number of differentially expressed genes ([1]; of 1,176 gene sequences): 26 genes; Share of genes differentially expressed ([1]; of 1,176 gene sequences): 2% |
| N.N.[Cl][Pt][Cl] [CISPLATIN, cisplatin] | 171 ± 33 milligrams | 368 ± 124 milligrams | 446 ± 175 milligrams | 563 ± 214 milligrams | 675 ± 220 milligrams | 922 ± 299 milligrams |  | significantly different from control |  |  |
| [N109D]-IGFBP-3: derivative of IGFBP-3 that has an amino acid sequence alteration at position 109 of the mature sequence |  |  |  |  |  |  | -0.2 days | not significantly different from control | -2.2 days | Effect on tumor growth on its own ([2]; 4 mg/kg/day SC ×21): no measurable effects; Potentiation of the effects of co-administered doxorubicin and 5-fluorouracil ([2]; 4 mg/kg/day SC ×21 with marginally effective doses of the agents): significantly (p<0.01) potentiated the effects of both agents |
| CC(=O)O[C@H]1C(=O)[C@@]2(C)[C@H]([C@H](OC(=O)c3ccccc3)[C@]3(O)C[C@H](OC(=O)[C@H](O)[C@@H](NC(=O)c4ccccc4)c4ccccc4)C(C)=C1C3(C)C)[C@]1(OC(C)=O)CO[C@@H]1C[C@@H]2O [TAXOL ®, paclitaxel] | 153 ± 32 milligrams | 327 ± 131 milligrams | 384 ± 337 milligrams | 512 ± 489 milligrams | 648 ± 538 milligrams | 900 ± 1067 milligrams |  | significantly different from control | +3.5 days |  |
| O=c1[nH]cc(F)c(=O)[nH]1 [5-FLUOROURACIL, 5-fluorouracil] |  |  |  |  |  |  | +1.9 days |  |  |  |
